Measured values published in patent US10053498B2, “Compositions comprising serum albumin and p53 peptides fusion proteins” (University of the Sciences of Philadelphia, priority 2014, dated 2018).

How the values were obtained:
[1] = plasma protein; cited from earlier work
[2] = system: MDA-MB-231 cells; experiment: CyQuant cytotoxicity assay in MDA-MB-231 cells; assay type: cell-based; details: 24 hrs, relative to rHSA-treated cells; nutlin 10 μM, ABT-263 2.5 μM (FIG. 13)
Method: (§2) Cytotoxicities were measured by CyQuant Assay and normalized according to rHSA-treated cells.

[3] = system: Hela cells; experiment: CyQuant cytotoxicity assay in Hela cells; assay type: cell-based; details: 24 hrs, relative to rHSA-treated cells; nutlin 10 μM, ABT-263 2.5 μM (FIG. 13)
Method: as §2

[4] = system: p53; experiment: Western blot and densitometry of p53 protein in SJSA-1 cells; assay type: cell-based; details: 10 μM, 24 hrs, densitometry
Method: (§1) SJSA-1 cells were lysed in buffer containing 20 mM Tris-HCl, 50 mM NaCl, 0.05% Triton X-100, and protease inhibitor cocktail. […] Mixtures were then allowed to incubate for 1 hour at RT.

[5] = system: SJSA-1 cells; experiment: CyQuant cytotoxicity assay in SJSA-1 cells; assay type: cell-based; details: 24 hrs, relative to rHSA-treated cells; nutlin 10 μM (FIG. 13)
Method: Osteosarcoma SJSA-1 cells (ATCC) were grown in RPMI media containing 10% FBS. Cytotoxicity assays were performed using SJSA-1 cells plated in 24- or 96-well plates at 20,000 or 5,000 cells per well, respectively. Cells were allowed to attach overnight. All treatments were added on day 2 in RPMI media containing 1% FBS plus the equivalent amounts of 1×PBS buffer. Unless otherwise indicated, cells were exposed to treatment media for 24 hours, at which time cytotoxicity was measured using the fluorometric CyQuant assay (Invitrogen, C35006) or the fluorometric Homogeneous Caspase assay (Roche, 03005372001), according to the manufacturer's instructions, for detection of apoptosis. All results were plotted relative to rHSA- or where indicated, rHSA/FA-FITC-treated cells.

[6] = system: SJSA-1 cells; experiment: Cell death on co-treatment with MTX in SJSA-1 cells; assay type: cell-based; details: co-treatment with MTX versus single agents (FIG. 14A)
Method: As shown above, HSA-PMI may induce apoptosis by disrupting MDM2/MDMX-p53 interaction and/or by inducing the release of BAK from MCL-1 or BCL-Xl. […] To test this hypothesis, SJSA cells were treated with MTX alone, HSA-PMI/nutlin alone, or MTX and HSA-PMI/nutlin.

[7] = system: MDM2; experiment: Western blot and densitometry of MDM2 protein in SJSA-1 cells; assay type: cell-based; details: 10 μM, 24 hrs, densitometry
Method: as §1

Sequence of MDM2 (Q00987 whole entry): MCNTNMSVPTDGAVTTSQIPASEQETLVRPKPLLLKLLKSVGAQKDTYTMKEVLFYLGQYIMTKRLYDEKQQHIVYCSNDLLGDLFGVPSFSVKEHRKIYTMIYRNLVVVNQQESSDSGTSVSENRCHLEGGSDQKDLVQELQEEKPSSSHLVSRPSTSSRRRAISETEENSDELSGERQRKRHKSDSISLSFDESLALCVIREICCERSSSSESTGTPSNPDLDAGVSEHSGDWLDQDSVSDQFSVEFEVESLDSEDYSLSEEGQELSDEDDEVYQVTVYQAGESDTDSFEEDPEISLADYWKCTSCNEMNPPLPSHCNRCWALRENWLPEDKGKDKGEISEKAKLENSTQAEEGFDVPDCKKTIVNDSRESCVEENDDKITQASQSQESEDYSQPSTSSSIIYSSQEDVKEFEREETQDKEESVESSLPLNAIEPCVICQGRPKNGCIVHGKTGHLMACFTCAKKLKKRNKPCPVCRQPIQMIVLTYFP

HSA: human serum albumin, the most abundant plasma protein
average half-life [1]: 19 days

CC1(C)CCC(c2ccc(Cl)cc2)=C(CN2CCN(c3ccc(C(=O)NS(=O)(=O)c4ccc(N[C@H](CCN5CCOCC5)CSc5ccccc5)c(S(=O)(=O)C(F)(F)F)c4)cc3)CC2)C1 [ABT-263]
cell death in MDA-MB-231 cells (p53 negative) [2]: killed | cell death in Hela cells (p53 under-expressing) [3]: killed

nutlin
increase in p53 protein [4]: 11.5 fold | cell death in SJSA-1 cells (p53 positive) [5]: killed | cell death in combination with MTX [6]: not additive | change in MDM2 protein expression [7]: 5 fold
